Reference: ChEMBL document CHEMBL1129469, “Nonpeptide angiotensin II receptor antagonists: the next generation in antihypertensive therapy” (J Med Chem, 1996)
Where a chain is given by its changes, count along the chain named. Values belong to the compound of their own block, whether it stands above or below them.

What was measured:
[1] = biological target: T1, Type-2 angiotensin II receptor (Rattus norvegicus, UniProt P35351); test: Inhibitory activity at Angiotensin II type 2 receptor.
T1 sequence (P35351 whole entry): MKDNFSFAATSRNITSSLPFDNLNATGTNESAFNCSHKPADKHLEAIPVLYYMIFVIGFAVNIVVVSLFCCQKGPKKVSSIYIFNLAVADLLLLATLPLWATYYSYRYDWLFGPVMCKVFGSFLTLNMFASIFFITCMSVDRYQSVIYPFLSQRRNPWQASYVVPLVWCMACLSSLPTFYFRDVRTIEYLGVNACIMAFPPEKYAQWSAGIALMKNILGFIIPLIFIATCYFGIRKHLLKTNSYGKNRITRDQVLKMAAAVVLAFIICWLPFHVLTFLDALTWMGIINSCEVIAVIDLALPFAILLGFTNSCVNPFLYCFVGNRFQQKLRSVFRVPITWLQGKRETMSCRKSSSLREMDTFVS

[2] = biological target: T2, Angiotensin II receptor (AT-1) type-1 (Rattus norvegicus, UniProt P29089+P25095); test: Inhibitory activity against Angiotensin II receptor, type 1; type: protein assay
T2 sequence (P29089 whole entry): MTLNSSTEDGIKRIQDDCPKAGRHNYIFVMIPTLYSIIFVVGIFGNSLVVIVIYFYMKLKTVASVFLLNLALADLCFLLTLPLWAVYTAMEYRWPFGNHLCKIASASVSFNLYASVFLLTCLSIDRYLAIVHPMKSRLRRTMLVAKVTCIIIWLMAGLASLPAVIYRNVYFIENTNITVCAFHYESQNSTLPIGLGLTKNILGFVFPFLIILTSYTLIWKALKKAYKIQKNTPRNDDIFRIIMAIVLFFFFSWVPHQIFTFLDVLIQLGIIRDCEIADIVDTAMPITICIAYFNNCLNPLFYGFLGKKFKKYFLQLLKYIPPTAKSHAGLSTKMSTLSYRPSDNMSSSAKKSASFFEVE
T2 sequence (P25095 whole entry): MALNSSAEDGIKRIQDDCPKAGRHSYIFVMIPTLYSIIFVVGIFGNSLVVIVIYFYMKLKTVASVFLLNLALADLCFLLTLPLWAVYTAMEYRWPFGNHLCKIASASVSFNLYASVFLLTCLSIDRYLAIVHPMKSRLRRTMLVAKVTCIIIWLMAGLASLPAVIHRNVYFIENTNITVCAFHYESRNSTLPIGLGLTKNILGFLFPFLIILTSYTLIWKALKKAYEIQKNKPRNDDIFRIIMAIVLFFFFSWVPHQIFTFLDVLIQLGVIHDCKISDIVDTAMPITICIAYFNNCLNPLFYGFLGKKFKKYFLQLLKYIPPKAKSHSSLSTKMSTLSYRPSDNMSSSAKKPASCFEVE

Rattus norvegicus [3] = species: Rattus norvegicus; test: Oral effective dose required for lowering blood pressure in renal hypertensive rats (RHR); type: functional
[4] = Oral bioavailability in dog; type: ADME, organism-based, Canis lupus familiaris; conditions: in vivo
[5] = Oral bioavailability in rat; type: ADME, organism-based; conditions: in vivo
[6] = biological target: T2, Angiotensin II receptor (AT-1) type-1; test: Inhibitory activity against Angiotensin II receptor type 1 in rat adrenal membrane; type: cell membranes
Rattus norvegicus [7] = test: Intravenous effective dose required for lowering blood pressure in renal hypertensive rats (RHR); type: functional
[8] = biological target: T3, Type-2 angiotensin II receptor (Homo sapiens, UniProt P50052); test: Ki value was evaluated against Angiotensin II receptor, type 2
T3 sequence (P50052 whole entry): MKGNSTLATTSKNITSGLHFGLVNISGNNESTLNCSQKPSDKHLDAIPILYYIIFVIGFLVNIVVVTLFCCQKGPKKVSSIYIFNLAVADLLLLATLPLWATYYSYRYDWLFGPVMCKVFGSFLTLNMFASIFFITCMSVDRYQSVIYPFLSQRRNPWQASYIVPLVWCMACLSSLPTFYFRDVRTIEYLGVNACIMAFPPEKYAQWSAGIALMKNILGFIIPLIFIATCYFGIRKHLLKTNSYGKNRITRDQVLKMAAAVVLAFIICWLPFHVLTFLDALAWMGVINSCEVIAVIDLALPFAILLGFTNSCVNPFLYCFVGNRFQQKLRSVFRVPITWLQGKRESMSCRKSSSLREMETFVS

[9] = biological target: T4, Type-1 angiotensin II receptor (Homo sapiens, UniProt P30556); test: Ki value was evaluated against Angiotensin II receptor, type 1
T4 sequence (P30556 whole entry): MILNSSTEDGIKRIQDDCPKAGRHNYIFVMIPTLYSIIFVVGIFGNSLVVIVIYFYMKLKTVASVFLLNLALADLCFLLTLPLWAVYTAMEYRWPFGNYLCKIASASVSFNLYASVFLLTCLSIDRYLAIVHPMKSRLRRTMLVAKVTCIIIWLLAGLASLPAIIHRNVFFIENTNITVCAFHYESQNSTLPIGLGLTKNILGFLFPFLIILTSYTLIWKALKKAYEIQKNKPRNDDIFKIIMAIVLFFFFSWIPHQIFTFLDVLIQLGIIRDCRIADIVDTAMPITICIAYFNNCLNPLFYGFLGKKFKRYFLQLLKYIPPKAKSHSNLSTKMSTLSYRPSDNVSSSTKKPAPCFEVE

[10] = biological target: T2, Angiotensin II receptor (AT-1) type-1; test: Inhibitory activity against Angiotensin II receptor, type 1 in rat aortic membranes; type: cell membranes
[11] = biological target: T5, Type-1 angiotensin II receptor (Oryctolagus cuniculus, UniProt P34976); test: (§1) Inhibition of Angiotensin II receptor, type 1
T5 sequence (P34976 whole entry): T4 sequence (P30556 whole entry) with I2M, V49A, I254V, I270V, R272H, R311K, T349S, A353V

Oryctolagus cuniculus = species: Oryctolagus cuniculus; test: Compound was tested for its antagonistic activity against angiotensin II-induced contractions in rabbit aorta; type: functional
[12] = biological target: T3, Type-2 angiotensin II receptor; test: Inhibition of Angiotensin II receptor, type 2
[13] = biological target: T4, Type-1 angiotensin II receptor; test: as §1

IC50 [1]: 0.28 nM | IC50 ([2]; read-out: IC50): 0.26 nM
SMILES: CCCC(=O)N(CCC(=O)c1c(CC)nc(CCC)n1Cc1ccc(-c2ccccc2S(=O)(=O)NC(=O)OCCC(C)C)cc1F)c1cccnc1
ED30 (Rattus norvegicus [3]): 0.27 mg/kg

bioavailability [4]: 13% | bioavailability [5]: 8% | IC50 [6]: 6 nM
SMILES: CCCc1nc(CC)c(C(=O)O)n1Cc1ccc(-c2ccccc2-c2nn[nH]n2)cc1
ED30 (Rattus norvegicus [7]): 0.005 mg/kg | ED30 (Rattus norvegicus [3]): 0.03 mg/kg

Ki [8]: 480 nM | Ki [9]: 29 nM
SMILES: CCCCc1nc2ccc(NC(=O)NC3CCCCC3)cc2n1Cc1ccc(-c2ccccc2C(=O)O)cc1
ED30 (Rattus norvegicus [7]): ~2 mg/kg

IC50 [2]: > 100000 nM
SMILES: Cc1cc(Cn2cnc3c2C[C@@H](C(=O)O)N(C(=O)C(c2ccccc2)c2ccccc2)C3)ccc1N(C)C.O=C(O)C(F)(F)F.O=C(O)C(F)(F)F

IC50 [10]: 0.6 nM
SMILES: CCCCc1nc2cccnc2n1Cc1ccc(-c2ccccc2-c2nnn[nH]2)cc1

IC50 [1]: 2 nM | IC50 [11]: 0.3 nM
SMILES: CCCc1ccc(-c2nnn[nH]2)c(-c2ccc(Cn3c(CC)nc4c(C)cc(C)nc43)cc2)c1

IC50 [1]: 130 nM | IC50 [11]: 5 nM
SMILES: CCc1nc2c(C)cc(C)nc2n1Cc1ccc2c(ccn2C(=O)c2cccc(-c3nn[nH]n3)c2)c1

bioavailability [4]: 34% | bioavailability [5]: 45% | IC50 [1]: 0.29 nM | IC50 ([2]; read-out: IC50): 0.24 nM
SMILES: CCCc1nc2c(C)c(NC(=O)c3ccccc3)cnc2n1Cc1ccc(-c2ccccc2S(=O)(=O)NC(=O)OCCC(C)C)cc1

SMILES: CCc1nc2c(C)cc(CO)nc2n1Cc1ccc2oc(-c3ccccc3NS(=O)(=O)C(F)(F)F)c(Br)c2c1
pKB (Oryctolagus cuniculus): 8.6

SMILES: CCCCc1nc(Cl)c(CC(=O)O)n1Cc1ccc(C(=O)O)cc1
ED30 (Rattus norvegicus [7]): 10 mg/kg

IC50 [12]: 24 nM | IC50 [13]: 4 nM
SMILES: CCCc1ccc2c(c1)-c1ccc(cc1)Cn1c(CCC)nc3ccc(cc3c1=O)NCCCCCCC(=O)NS2(=O)=O

SMILES: CCCCc1nc(Cl)c(CO)n1Cc1ccc(-c2ccccc2C(=O)O)cc1
ED30 (Rattus norvegicus [3]): 3.7 mg/kg

IC50 [13]: 1.1 nM
SMILES: CCCCOC(=O)NS(=O)(=O)c1sc(CC(C)C)cc1-c1ccc(Cn2c(CC)nc3c(C)cc(C)nc32)cc1

IC50 [13]: 1.4 nM
SMILES: CCCCOC(=O)NS(=O)(=O)c1ccc(Cc2cccc(OC)c2)cc1-c1ccc(Cn2c(CC)nc3c(C)cc(C)nc32)cc1

IC50 [1]: 30 nM | IC50 [2]: > 100000 nM
SMILES: O=C(O)[C@@H]1Cc2cc(-c3ccccc3)ccc2CN1C(=O)C(c1ccccc1)c1ccccc1

IC50 [6]: 2.1 nM
SMILES: CCCc1nc(CC)c(C=O)n1Cc1ccc(-c2ccccc2-c2nn[nH]n2)cc1
ED30 (Rattus norvegicus [3]): 0.027 mg/kg

IC50 ([2]; read-out: IC50): 3 nM
SMILES: CCCc1nc(C(F)(F)C(F)(F)F)c(C(=O)O)n1Cc1ccc(-c2ccccc2-c2nn[nH]n2)cc1Br

IC50 [13]: > 100000 nM
SMILES: Cc1cc(Cn2cnc3c2C[C@@H](C(=O)O)N(C(=O)C(c2ccccc2)c2ccccc2)C3)ccc1N

IC50 [12]: 1 nM | IC50 [13]: 1 nM
SMILES: CCCc1nc(CC)c(C(=O)OC)n1Cc1ccc(-c2ccccc2S(=O)(=O)NC(=O)OCCC(C)C)cc1F
ED50 (Rattus norvegicus [7]): 0.48 mg/kg | ED50 (Rattus norvegicus [3]): 0.67 mg/kg

IC50 [1]: 70 nM | IC50 [2]: > 100000 nM
SMILES: COc1ccc(Cn2cnc3c2C[C@@H](C(=O)O)N(C(=O)C(c2ccccc2)c2ccccc2)C3)cc1C
